Results on one compound are retold here after EP0655506B1 (priority 1994, dated 1995).

Holding throughout (experiment): Inhibition of DNA synthesis on synthetic Primer-Template A, competition of dATP and ddATP (Example 9)
One assay has as its target T1, T7 DNA polymerase Y526F (Escherichia phage T7, UniProt P00581, DEL118-145/Y526F).
T1 construct: made in house; host or cells: strain that produces E. coli thioredoxin (lac promoter)
It counts as biochemical, bacteriophage T7. The note with it: in the presence of 10 µM dATP, 37°C, read-out: [ddATP] for 50% inhibition. The procedure: (§1) In this example the competition between a dNTP and a ddNTP is assayed for use at a single site in a synthetic primer-template. This assay differs from the others in that it limits the comparison of the use of the two substrates to a single site, avoiding the complication of sequence-specific variability in discrimination. […]
(§2) Each reaction mixture contains 25 pmoles each of primer and template. […] The mixtures are incubated at 37°C for 1 min (70°C for thermophilic DNA polymerases), and the reactions are initiated by the addition of 5 µl aliquots (0.01 to 1 unit) of the DNA polymerase being analyzed diluted in 20 mM TrisHCl, pH 7.5, 10 mM 2-mercaptoethanol and 0.05% bovine serum albumin. […] The disks are then dried under a heat lamp and counted in a scintillation counter in 5 ml of fluor (Opti-Fluor O, Packard). From the amount of radioactivity on each disk, the amount […] incorporated was determined. […]
(§3) All reactions are carried out with a constant amount of the DNA polymerase being analyzed; the amount of DNA polymerase should be sufficient to replicate 50% of the total dCMP residues in the single-stranded region of the template in the 10 min incubation in the presence of 10 µM dATP and the absence of ddATP. […]

The target of assay [1] is T2, T7 DNA polymerase (28 amino acid deletion in the exonuclease domain, complexed with thioredoxin) (Escherichia phage T7, UniProt P00581, DEL118-145).
T2 construct: made in house; host or cells: strain that produces E. coli thioredoxin (lac promoter)
It counts as biochemical, bacteriophage T7. The note with it: in the presence of 10 µM dATP, 37°C, read-out: [ddATP] for 50% inhibition. The procedure:
as §1, §2, §3

In assay [2] the target is T3, Taq DNA polymerase (unmodified DNA polymerase from Thermus aquaticus) (Thermus aquaticus, UniProt P19821).
T3 construct: to the gene that produces the full length Taq DNA polymerase; made in house
In kind it is biochemical. The note with it: in the presence of 10 µM dATP, 70°C, read-out: [ddATP] for 50% inhibition. The procedure:
as §1, §2, §3

The target of assay [3] is T4, E. coli DNA polymerase I (large fragment, Klenow fragment), wild type (Escherichia coli, UniProt P00582).
T4 construct: The large fragment of E. coli DNA polymerase I, commonly called the Klenow fragment; made in house
In kind it is biochemical. The note with it: in the presence of 10 µM dATP, 37°C, read-out: [ddATP] for 50% inhibition. The method, then:
as §1, §2, §3

`Nc1ncnc2c1ncn2[C@H]1CC[C@@H](COP(=O)(O)OP(=O)(O)OP(=O)(O)O)O1` [ddATP]: the IC50 was above 500 µM at T7 DNA polymerase Y526F, around 30 µM in assay [1], above 500 µM in assay [2] and above 500 µM in assay [3].
